# Laboratory results reported in patent publication US20260240202A1, “MINERAL PROTEINATES FOR USE IN ANIMAL FEEDS, AND METHODS OF MAKING THEREOF” (Cargill, Incorporated, priority 2023, published 2026).
# Marks after values point to notes of the source that are not given here.
# Assay: Chick Zn bioavailability trial: performance and tibia bone measures
# Format: in vivo, New Hampshire×Columbian male and female chicks
# Details: for Dry Bone Wt (mg/tibia) / Bone Ash (%) / Bone Ash Wt (mg/tibia) / Tibia Ash Zn Conc. (μg/g of ash): 14 d; for Dry Bone Wt (mg/tibia): right tibia
# Description: New Hampshire×Columbian male and female chicks from the University of Illinois Poultry Field Laboratory were fed a nutritionally complete corn-soybean meal diet for the first 3 days post-hatching. The chicks were then switched to a Zn-deficient soy concentrate basal diet and fed this diet until 1600 h on D 7 post-hatching. After being subjected to overnight feed withdrawal, chicks were weighed, wing banded and allotted to pens so that each pen has a similar initial weight. Treatment additions were made at the expense of cornstarch. The trial diet can be seen in Table 6.
# Five replicate groups of four chicks were fed one of 10 diets for 14 d (Day 8-22 post-hatch). Chicks were maintained in heated stainless-steel batteries and exposed to constant fluorescent light. The dietary treatments are listed below: • 1. Basal soy concentrate diet-Zn deficient (13-14 mg/kg Zn) • 2. As 1+3 mg/kg Zn from feed grade ZnSO4·7H2O • 3. As 1+6 mg/kg Zn from feed grade ZnSO4·7H2O • 4. As 1+9 mg/kg Zn from feed grade ZnSO4·7H2O • 5. As 1+3 mg/kg Zn from Organic Zn prototype MinPro-E75 • 6. As 1+6 mg/kg Zn from Organic Zn prototype MinPro-E75 • 7. As 1+9 mg/kg Zn from Organic Zn prototype MinPro-E75 • 8. As 1+3 mg/kg Zn from Organic Zn prototype MinPro-HSW • 9. As 1+6 mg/kg Zn from Organic Zn prototype MinPro-HSW • 10. As 1+9 mg/kg Zn from Organic Zn prototype MinPro-HSW
# Chicks were weighed at the beginning and the end of the trial and weight gain calculated by subtracting the starting weight from the ending weight. Feed intakes were calculated via subtracting the feed refusals from the feed provided, with Zn intakes calculated based on Zn concentration in the diet and total feed consumed. Feed conversions were determined by using the feed consumed divided by weight gained.
# Upon termination of the experiment, chicks and feeders were weighed and chicks were euthanized with CO2 gas. The right tibia from each chick was removed and pooled by replicate pen. The tibia was then autoclaved and cleaned to remove all adhering tissue, dried at 110° C. for 24 h, and then dry ashed in a muffle furnace. The ash was analyzed for Zn at the University of Missouri. Bioavailability of Zn was then determined by the slope-ratio method using multiple regression analysis. Weight gain, tibia Zn concentration and total tibia Zn were regressed on supplemental Zn intake from the Zn sources and the bioavailability of the Zn in the Zn-protein sources was calculated relative to the Zn in ZnSO4·7H2O.
compound,measurement,setting,value
"O.O.O.O.O.O.O.O=S(=O)([O-])[O-].[Zn+2] [ZnSO4, ZnSO4·7H2O]",Dry Bone Wt (mg/tibia),3 mg/kg supplemental Zn in Zn-deficient basal diet,1012^e mg/tibia
same,Bone Ash (%),3 mg/kg supplemental Zn,42.8^bcd %
same,Bone Ash Wt (mg/tibia),3 mg/kg supplemental Zn,433^de mg/tibia
same,Tibia Ash Zn Conc. (μg/g of ash),3 mg/kg supplemental Zn,79.16^ef μg/g of ash
same,Dry Bone Wt (mg/tibia),6 mg/kg supplemental Zn in Zn-deficient basal diet,1104^bdc mg/tibia
same,Bone Ash (%),6 mg/kg supplemental Zn,43.4^abcd %
same,Bone Ash Wt (mg/tibia),6 mg/kg supplemental Zn,478^bc mg/tibia
same,Tibia Ash Zn Conc. (μg/g of ash),6 mg/kg supplemental Zn,88.98^cd μg/g of ash
same,Dry Bone Wt (mg/tibia),9 mg/kg supplemental Zn in Zn-deficient basal diet,1176^ab mg/tibia
same,Bone Ash (%),9 mg/kg supplemental Zn,43.8^ab %
same,Bone Ash Wt (mg/tibia),9 mg/kg supplemental Zn,515^ab mg/tibia
same,Tibia Ash Zn Conc. (μg/g of ash),9 mg/kg supplemental Zn,101.2^ab μg/g of ash
same,Feed efficiency,Zinc inclusion at 3 mg/kg and 6 mg/kg,approximately 560 g/kg of feed consumed
